Results from patent publication US9035056B2, “Pyrido[4,3-b]indole and pyrido[3,4-b]indole derivatives and methods of use” (Medivation Technologies, Inc., priority 2011, dated 2015).

How the values were obtained:
[1] = tested on: New Zealand White rabbits; settings: conscious rabbits, intravenous, positive control, before the blood pressure reversed back
Method: Four adult New Zealand White rabbits of both sexes are chosen for these studies. The experiments are conducted in accordance with the Australian code of Practice for the Care and use of Animals for Scientific Purposes and approval is sought from the Animal Experimental Committee of Alfred Hospital, Baker IDI, Melbourne, Australia. The conscious rabbits are implanted with an intravenous catheter in marginal ear vein or by centrally by […] catheter interfaced to a pressure transducer connected to a suitable recorder. To unveil peripheral effects of test compound, two sets of acute studies are conducted in rabbits. In the first set of studies, test compound is dosed to rabbit intravenously for a dose-response study with cumulative doses starting 0 (Ringer's Lock solution as a vehicle), 0.1, 0.3, 1, 3.2 and 10 mg/kg where each dose is tested on a separate day. A single intravenous bolus dose at 3 mg/kg is given and a time-course study is conducted in the second set of studies. Systolic, […], mean and […] blood pressures are recorded in both the studies.

[2] = target: T1, human recombinant histamine H1 receptor (Homo sapiens, UniProt P35367); assay: Histamine H1 radioligand binding ([3H]Pyrilamine); settings: 1 μM compound; read-out: Binding data (Percentage inhibition) Histamine H1 (1 μM)
T1 construct: expressed in transfected cells; host or cells: CHO-K1
T1 sequence (P35367 whole entry): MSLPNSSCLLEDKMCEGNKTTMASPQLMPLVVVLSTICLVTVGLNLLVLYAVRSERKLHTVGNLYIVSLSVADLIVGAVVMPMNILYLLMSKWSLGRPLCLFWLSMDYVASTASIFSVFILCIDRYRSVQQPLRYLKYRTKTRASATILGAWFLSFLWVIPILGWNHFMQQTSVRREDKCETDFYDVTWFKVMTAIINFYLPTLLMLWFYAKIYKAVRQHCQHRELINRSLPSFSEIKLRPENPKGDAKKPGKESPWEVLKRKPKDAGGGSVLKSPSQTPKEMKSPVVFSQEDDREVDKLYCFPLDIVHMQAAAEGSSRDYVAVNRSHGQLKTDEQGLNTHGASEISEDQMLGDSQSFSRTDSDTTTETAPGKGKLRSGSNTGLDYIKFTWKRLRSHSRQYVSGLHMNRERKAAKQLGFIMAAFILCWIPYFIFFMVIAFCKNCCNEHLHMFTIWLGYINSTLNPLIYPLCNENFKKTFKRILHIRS
Method: To evaluate in radioligand binding assays the activity of compounds of the invention, human recombinant histamine H1 receptor expressed in Chinese hamster ovary (CHO) K1 cells (De Backer, M. et al, Biochem. Biophys. Res. Comm. 197(3):1601, 1993) in a modified Tris-HCl buffer (50 mM Tris-HCl, pH 7.4, 2 mM MgCl2, 100 mM NaCl, 250 mM Sucrose) was used. Compounds of the invention were incubated with 1.2 nM [^3H]Pyrilamine for 180 min at 25° C. Non-specific binding was estimated in the presence of 1 μM Pyrilamine. Receptor proteins were filtered and washed, the filters were then counted to determine [^3H]Pyrilamine specifically bound. Compounds were screened at 1 μM or lower, using 1% DMSO as vehicle. Biochemical assay results are presented as the percent inhibition of specific binding in Table 3.

[3] = target: T2, human recombinant serotonin (5-Hydroxytryptamine) 5-HT6 receptor (Homo sapiens, UniProt P50406); assay: Serotonin 5-HT6 radioligand binding ([3H]LSD); settings: 0.1 μM compound; read-out: Percentage inhibition of ligand binding, Serotonin 5-HT6
T2 construct: expressed in transfected cells; host or cells: HeLa
T2 sequence (P50406 whole entry): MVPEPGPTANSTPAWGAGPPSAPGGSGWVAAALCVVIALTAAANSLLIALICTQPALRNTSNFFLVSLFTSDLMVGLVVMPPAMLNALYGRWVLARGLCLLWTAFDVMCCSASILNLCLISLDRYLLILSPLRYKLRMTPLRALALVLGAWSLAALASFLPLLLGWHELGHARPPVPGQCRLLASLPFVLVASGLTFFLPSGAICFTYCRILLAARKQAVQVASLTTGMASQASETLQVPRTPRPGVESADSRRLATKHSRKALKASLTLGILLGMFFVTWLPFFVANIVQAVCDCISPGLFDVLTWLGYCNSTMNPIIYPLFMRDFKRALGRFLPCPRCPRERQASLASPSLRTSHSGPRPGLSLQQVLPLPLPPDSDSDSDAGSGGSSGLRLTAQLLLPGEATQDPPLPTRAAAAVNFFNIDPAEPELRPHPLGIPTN
Method: To evaluate in radioligand binding assays the activity of compounds of the invention, human recombinant serotonin (5-Hydroxytryptamine) 5-HT6 receptor expressed in human HeLa cells (Monsma, F. Jr. et al, Mol. Pharmacol. 43:320, 1993) in a modified Tris-HCl buffer (50 mM Tris-HCl, pH 7.4, 150 mM NaCl, 2 mM Ascorbic Acid, 0.001% BSA) was used. Compounds of the invention were incubated with 1.5 nM [3H]Lysergic acid diethylamide (LSD) for 120 min at 37° C. Non-specific binding was estimated in the presence of 5 μM Serotonin (5-HT). Receptor proteins were filtered and washed, the filters were then counted to determine [3H]LSD specifically bound. Compounds were screened at 1 μM or lower, using 1% DMSO as vehicle. Biochemical assay results are presented as the percent inhibition of specific binding in Table 5.

[4] = target: T3, human recombinant serotonin (5-Hydroxytryptamine) 5-HT7 receptor (Homo sapiens, UniProt P34969); assay: Serotonin 5-HT7 radioligand binding ([3H]LSD); settings: 0.1 μM compound; read-out: Percentage inhibition of ligand binding, Serotonin 5-HT7
T3 construct: expressed in transfected cells; host or cells: CHO
T3 sequence (P34969 whole entry): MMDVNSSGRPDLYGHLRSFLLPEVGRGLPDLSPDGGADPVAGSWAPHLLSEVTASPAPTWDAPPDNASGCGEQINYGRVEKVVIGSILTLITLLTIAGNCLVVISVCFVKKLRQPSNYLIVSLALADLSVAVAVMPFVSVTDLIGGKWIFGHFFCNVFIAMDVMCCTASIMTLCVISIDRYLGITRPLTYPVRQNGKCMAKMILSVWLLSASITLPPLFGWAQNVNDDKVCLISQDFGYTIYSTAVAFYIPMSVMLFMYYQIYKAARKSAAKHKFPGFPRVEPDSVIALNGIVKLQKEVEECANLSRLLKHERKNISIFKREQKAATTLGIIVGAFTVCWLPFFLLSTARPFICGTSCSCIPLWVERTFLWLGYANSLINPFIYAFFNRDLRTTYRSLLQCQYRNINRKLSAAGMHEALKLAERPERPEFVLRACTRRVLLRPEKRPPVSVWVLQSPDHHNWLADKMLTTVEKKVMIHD
Method: To evaluate in radioligand binding assays the activity of compounds of the invention, human recombinant serotonin (5-Hydroxytryptamine) 5-HT7 receptor expressed in Chinese hamster ovary (CHO) cells (Roth, B. et al, J. Pharmacol. Exp. Ther. 268:1403, 1994; Shen, Y. et al, J. Biol. Chem. 268:18200, 1993) in a modified Tris-HCl buffer (50 mM Tris-HCl, pH 7.4, 10 mM MgCl2, 0.5 mM EDTA) was used. Compounds of invention were incubated with 5.5 nM [^3H] Lysergic acid diethylamide (LSD) for 2 h at 25° C. Non-specific binding was estimated in the presence of 10 μM Serotonin (5-HT). Receptor proteins were filtered and washed, the filters were then counted to determine [^3H]LSD specifically bound. Compounds were screened at 1 μM or lower, using 1% DMSO as vehicle. Biochemical assay results are presented as the percent inhibition of specific binding in Table 5.

[5] = target: T4, human recombinant serotonin (5-Hydroxytryptamine) 5-HT2C receptor (Homo sapiens, UniProt P28335); assay: Serotonin 5-HT2C radioligand binding ([3H]Mesulergine); settings: 0.1 μM compound; read-out: Percentage inhibition of ligand binding, Serotonin 5-HT2C
T4 construct: expressed in transfected cells; host or cells: CHO-K1
T4 sequence (P28335 33-458): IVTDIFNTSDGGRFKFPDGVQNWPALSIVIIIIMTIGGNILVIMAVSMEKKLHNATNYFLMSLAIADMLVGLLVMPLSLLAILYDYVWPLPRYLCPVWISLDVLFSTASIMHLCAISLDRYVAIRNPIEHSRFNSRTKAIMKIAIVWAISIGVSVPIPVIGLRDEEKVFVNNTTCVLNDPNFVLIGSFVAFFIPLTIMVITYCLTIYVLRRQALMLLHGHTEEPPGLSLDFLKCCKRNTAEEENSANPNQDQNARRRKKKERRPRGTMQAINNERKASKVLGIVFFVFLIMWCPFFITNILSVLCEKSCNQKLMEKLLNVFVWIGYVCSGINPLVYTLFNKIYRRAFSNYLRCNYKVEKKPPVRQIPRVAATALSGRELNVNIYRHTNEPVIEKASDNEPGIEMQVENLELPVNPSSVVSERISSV
Method: To evaluate in radioligand binding assays the activity of compounds of the invention, human recombinant serotonin (5-Hydroxytryptamine) 5-HT2C receptor expressed in Chinese hamster ovary (CHO) K1 cells (Wolf, W. et al, J. Neurochem. 69:1449, 1997) in a modified Tris-HCl buffer (50 mM Tris-HCl, pH 7.4, 0.1% Ascorbic Acid, 10 μM Pargyline) was used. Compounds of the invention were incubated with 1 nM [^3H]Mesulergine for 60 min at 25° C. Non-specific binding was estimated in the presence of 1 μM Mianserin. Receptor proteins were filtered and washed, the filters were then counted to determine [^3H]Mesulergine specifically bound. Compounds were screened at 1 μM or lower, using 1% DMSO as vehicle. Biochemical assay results are presented as the percent inhibition of specific binding in Table 5.

[6] = target: T5, human recombinant dopamine D2L receptor (Homo sapiens, UniProt P14416); assay: Dopamine D2L radioligand binding ([3H]Spiperone); settings: 1 μM compound; read-out: Percentage inhibition of ligand binding, Dopamine D2L
T5 construct: expressed in transfected cells; host or cells: CHO
T5 sequence (P14416 whole entry): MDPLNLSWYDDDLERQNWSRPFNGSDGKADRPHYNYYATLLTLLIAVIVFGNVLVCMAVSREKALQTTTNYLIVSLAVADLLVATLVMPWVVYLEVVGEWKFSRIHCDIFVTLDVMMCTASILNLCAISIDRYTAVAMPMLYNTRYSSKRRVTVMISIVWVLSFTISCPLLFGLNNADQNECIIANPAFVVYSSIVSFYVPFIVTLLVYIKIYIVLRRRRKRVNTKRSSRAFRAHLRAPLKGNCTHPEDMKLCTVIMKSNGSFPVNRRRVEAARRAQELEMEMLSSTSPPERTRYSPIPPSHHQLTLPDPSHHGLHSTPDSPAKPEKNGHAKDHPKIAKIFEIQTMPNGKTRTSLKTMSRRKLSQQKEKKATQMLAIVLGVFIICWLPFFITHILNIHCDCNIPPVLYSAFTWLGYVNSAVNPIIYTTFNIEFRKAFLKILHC
Method: To evaluate in radioligand binding assays the activity of compounds of the invention, human recombinant dopamine D2L receptor expressed in Chinese hamster ovary (CHO) cells (Grandy, D. et al, Proc. Natl. Acad. Sci. USA. 86:9762, 1989; Hayes, G. et al, Mol. Endocrinol. 6:920, 1992) in a modified Tris-HCl buffer (50 mM Tris-HCl, pH 7.4, 1.4 mM Ascorbic Acid, 0.001% BSA, 150 mM NaCl) was used. Compounds of the invention were incubated with 0.16 nM [^3H]Spiperone for 120 min at 25° C. Non-specific binding was estimated in the presence of 10 μM Haloperidol. Receptor proteins were filtered and washed, the filters were then counted to determine [^3H]Spiperone specifically bound. Compounds were screened at 1 μM or lower, using 1% DMSO as vehicle. Biochemical assay results are presented as the percent inhibition of specific binding in Table 4.

[7] = target: T6, human recombinant serotonin (5-Hydroxytryptamine) 5-HT2A receptor (Homo sapiens, UniProt P28223); assay: Serotonin 5-HT2A radioligand binding ([3H]Ketanserin); settings: 0.1 μM compound; read-out: Percentage inhibition of ligand binding, Serotonin 5-HT2A
T6 construct: expressed in transfected cells; host or cells: CHO-K1
T6 sequence (P28223 whole entry): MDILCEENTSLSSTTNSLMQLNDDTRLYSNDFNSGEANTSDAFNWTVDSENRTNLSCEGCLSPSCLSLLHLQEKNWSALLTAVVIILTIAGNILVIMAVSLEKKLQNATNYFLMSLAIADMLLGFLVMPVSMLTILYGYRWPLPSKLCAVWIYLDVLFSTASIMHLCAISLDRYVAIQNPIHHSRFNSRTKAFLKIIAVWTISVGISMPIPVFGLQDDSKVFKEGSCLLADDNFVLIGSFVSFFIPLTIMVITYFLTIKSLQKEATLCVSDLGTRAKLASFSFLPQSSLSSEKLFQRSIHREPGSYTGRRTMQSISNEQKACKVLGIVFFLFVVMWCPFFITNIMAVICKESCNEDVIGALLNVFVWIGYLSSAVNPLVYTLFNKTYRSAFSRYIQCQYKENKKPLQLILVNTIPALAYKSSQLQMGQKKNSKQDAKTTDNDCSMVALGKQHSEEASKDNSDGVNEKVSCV
Method: To evaluate in radioligand binding assays the activity of compounds of the invention, human recombinant serotonin (5-Hydroxytryptamine) 5-HT2A receptor expressed in Chinese hamster ovary (CHO) K1 cells (Bonhaus, D. et al, Br. J. Pharmacol. 115:622, 1995; Saucier, C. et al, J. Neurochem. 68:1998, 1997) in a 50 mM Tris-HCl buffer, pH 7.4, was used. Compounds of the invention were incubated with 0.5 nM [^3H]Ketanserin for 60 min at 25° C. Non-specific binding was estimated in the presence of 1 μM Mianserin. Receptor proteins were filtered and washed, the filters were then counted to determine [^3H]Ketanserin specifically bound. Compounds were screened at 1 μM or lower, using 1% DMSO as vehicle. Biochemical assay results are presented as the percent inhibition of specific binding in Table 5.

| Compound | maximum drop of arterial blood pressure [1] [mmHg] | inhibition at 1 µM [2] [%] | inhibition at 0.1 µM [3] [%] | inhibition at 0.1 µM [4] [%] | inhibition at 0.1 µM [5] [%] | inhibition at 1 µM [6] [%] | inhibition at 0.1 µM [7] [%] |
| --- | --- | --- | --- | --- | --- | --- | --- |
| Clc1cccc(Cl)c1N=C1NCCN1 [Clonidine] | −6 | – | – | – | – | – | – |
| CN1CCc2c(c3cc(Cl)ccc3n2C=C2CCCCC2)C1 [i-1] | – | 100 | 91 | 81 | 98 | 93 | 94 |
